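These data come from cells grown in 96-well plates and exposed to compound for 48 hours at five concentrations. GI50: concentration for 50% inhibition of growth. TGI is the concentration that stops growth completely.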
How the values were obtained:
Experiment in all cases: growth of human tumour cells (NCI), 48 h
SK-MEL-2 melanoma = system: SK-MEL-2 melanoma
TK-10 renal = system: TK-10 renal
SF-539 CNS = system: SF-539 CNS
CCRF-CEM leukemia = system: CCRF-CEM leukemia
MDA-MB-435 = system: MDA-MB-435
MDA-MB-231 breast = system: MDA-MB-231 breast
BT-549 breast = system: BT-549 breast
EKVX NSCLC = system: EKVX NSCLC
HL-60(TB) leukemia = system: HL-60(TB) leukemia
NCI/ADR-RES ovarian = system: NCI/ADR-RES ovarian

COc1ccc(CCN2CCC(Nc3nc4ccccc4n3Cc3ccc(F)cc3)CC2)cc1
GI50 (SK-MEL-2 melanoma): 2.29 µM | TGI (SK-MEL-2 melanoma): 4.78 µM | GI50 (TK-10 renal): 1.82 µM | TGI (TK-10 renal): 3.38 µM | GI50 (SF-539 CNS): 1.77 µM | TGI (SF-539 CNS): 3.25 µM | GI50 (CCRF-CEM leukemia): 1.87 µM | TGI (CCRF-CEM leukemia): 5.45 µM | GI50 (MDA-MB-435): 1.5 µM | TGI (MDA-MB-435): 3 µM | GI50 (MDA-MB-231 breast): 1.45 µM | TGI (MDA-MB-231 breast): 2.88 µM | GI50 (BT-549 breast): 1.6 µM | TGI (BT-549 breast): 2.96 µM | GI50 (EKVX NSCLC): 1.79 µM | TGI (EKVX NSCLC): 5.35 µM | GI50 (HL-60(TB) leukemia): 1.96 µM | TGI (HL-60(TB) leukemia): 3.81 µM | GI50 (NCI/ADR-RES ovarian): 1.59 µM | TGI (NCI/ADR-RES ovarian): 3.32 µM

Cc1cc(=O)oc2c(OS(C)(=O)=O)c(OS(C)(=O)=O)ccc12
TGI (SK-MEL-2 melanoma): > 100 µM | TGI (TK-10 renal): > 100 µM | TGI (SF-539 CNS): > 100 µM | TGI (CCRF-CEM leukemia): > 100 µM | TGI (MDA-MB-435): > 100 µM | TGI (MDA-MB-231 breast): > 100 µM | TGI (BT-549 breast): > 100 µM | TGI (EKVX NSCLC): > 100 µM | TGI (HL-60(TB) leukemia): > 100 µM | TGI (NCI/ADR-RES ovarian): > 100 µM

O=C(O)CP(=O)(O)O
TGI (SK-MEL-2 melanoma): > 100 µM | TGI (TK-10 renal): > 100 µM | TGI (SF-539 CNS): > 100 µM | TGI (CCRF-CEM leukemia): > 100 µM | TGI (MDA-MB-435): > 100 µM | TGI (MDA-MB-231 breast): > 100 µM | TGI (BT-549 breast): > 100 µM | TGI (EKVX NSCLC): > 100 µM | TGI (HL-60(TB) leukemia): > 100 µM | TGI (NCI/ADR-RES ovarian): > 100 µM

NC1=CC(=O)c2nc3ccccc3c3ccnc1c23
GI50 (SK-MEL-2 melanoma): 9.45 µM | TGI (SK-MEL-2 melanoma): 32.1 µM | GI50 (TK-10 renal): 6.54 µM | TGI (TK-10 renal): 42.5 µM | GI50 (SF-539 CNS): 3.99 µM | TGI (SF-539 CNS): 57.1 µM | GI50 (CCRF-CEM leukemia): 11.6 µM | TGI (CCRF-CEM leukemia): > 100 µM | GI50 (MDA-MB-435): 1.22 µM | TGI (MDA-MB-435): 19 µM | GI50 (MDA-MB-231 breast): 16.9 µM | TGI (MDA-MB-231 breast): > 70.1 µM | GI50 (BT-549 breast): 6.9 µM | TGI (BT-549 breast): 27.9 µM | GI50 (EKVX NSCLC): 9.14 µM | TGI (EKVX NSCLC): 29.4 µM | GI50 (HL-60(TB) leukemia): 6.38 µM | TGI (HL-60(TB) leukemia): > 58.8 µM | GI50 (NCI/ADR-RES ovarian): 7.33 µM | TGI (NCI/ADR-RES ovarian): 69.4 µM

CC1OC(n2c3ccccc3c3c4c(c5c6ccccc6[nH]c5c32)C(=O)N(CCN2CCOCC2)C4=O)CC(O)C1O (stereo unspecified)
GI50 (SK-MEL-2 melanoma): 10.6 µM | TGI (SK-MEL-2 melanoma): 22 µM | GI50 (TK-10 renal): 6.33 µM | TGI (TK-10 renal): 13.8 µM | GI50 (CCRF-CEM leukemia): 2.1 µM | TGI (CCRF-CEM leukemia): 18.1 µM | GI50 (MDA-MB-435): 2.71 µM | TGI (MDA-MB-435): 9.59 µM | GI50 (MDA-MB-231 breast): 6.63 µM | TGI (MDA-MB-231 breast): 18.9 µM | GI50 (BT-549 breast): 2.83 µM | TGI (BT-549 breast): 12.1 µM | GI50 (EKVX NSCLC): 6.14 µM | TGI (EKVX NSCLC): 17.7 µM | GI50 (HL-60(TB) leukemia): 2.28 µM | TGI (HL-60(TB) leukemia): 13.1 µM | GI50 (NCI/ADR-RES ovarian): 2.87 µM | TGI (NCI/ADR-RES ovarian): 13.1 µM

Nc1ccc(-c2nc3ccccc3o2)cc1S
GI50 (SK-MEL-2 melanoma): 42.4 µM | TGI (SK-MEL-2 melanoma): > 100 µM | GI50 (TK-10 renal): 11.6 µM | TGI (TK-10 renal): 29 µM | GI50 (SF-539 CNS): 17.6 µM | TGI (SF-539 CNS): 31.4 µM | GI50 (CCRF-CEM leukemia): 14 µM | TGI (CCRF-CEM leukemia): 43.3 µM | GI50 (MDA-MB-435): 17.8 µM | TGI (MDA-MB-435): 36.9 µM | GI50 (MDA-MB-231 breast): 6.14 µM | TGI (MDA-MB-231 breast): 23.6 µM | GI50 (BT-549 breast): 23.6 µM | TGI (BT-549 breast): 49.8 µM | GI50 (EKVX NSCLC): 11.6 µM | TGI (EKVX NSCLC): 55.3 µM | GI50 (HL-60(TB) leukemia): 14.5 µM | TGI (HL-60(TB) leukemia): 42 µM | GI50 (NCI/ADR-RES ovarian): 24.9 µM | TGI (NCI/ADR-RES ovarian): 65.2 µM

CC1(C)N=C(N)N=C(N)N1c1cccc(CCCCOc2ccccc2)c1
GI50 (SK-MEL-2 melanoma): 1.61 µM | TGI (SK-MEL-2 melanoma): 19.9 µM | GI50 (TK-10 renal): 0.197 µM | TGI (TK-10 renal): 62.6 µM | GI50 (SF-539 CNS): 0.127 µM | TGI (SF-539 CNS): 17 µM | GI50 (CCRF-CEM leukemia): 0.0414 µM | TGI (CCRF-CEM leukemia): 32.7 µM | GI50 (MDA-MB-435): < 0.0194 µM | TGI (MDA-MB-435): 25 µM | GI50 (MDA-MB-231 breast): 0.881 µM | TGI (MDA-MB-231 breast): 48.6 µM | GI50 (BT-549 breast): 1.15 µM | TGI (BT-549 breast): 16.8 µM | GI50 (HL-60(TB) leukemia): 0.0239 µM | TGI (HL-60(TB) leukemia): 9.6 µM | GI50 (NCI/ADR-RES ovarian): > 100 µM | TGI (NCI/ADR-RES ovarian): > 100 µM
